According to US11098060B2, “Macrocycle containing aminopyrazole and pyrimidine and pharmaceutical composition and use thereof” (CHIA TAI TIANQING PHARMACEUTICAL GROUP CO., LTD., priority 2017, dated 2021):

Assays:
TrkA^WT kinase = TrkA^WT kinase (Homo sapiens (Human), UniProt P04629); experiment: Assay for inhibitory activity (IC50) against TrkA^WT (HTRF); type: biochemical; settings: TrkA 1 nM, ATP 40 μM, TK peptide 1 μM, 60 min at 23° C.
[1] = target: TrkA^G595R (Kinase domain) kinase (Homo sapiens (Human), UniProt P04629, G595R); experiment: Assay for inhibitory activity (IC50) against TrkA^G595R kinase (HTRF); type: biochemical; settings: kinase 0.2 nM, TK peptide 1 μM, 120 min at 23° C.
TrkA^G595R (Kinase domain) kinase, sequence (P04629 510-781 G595R): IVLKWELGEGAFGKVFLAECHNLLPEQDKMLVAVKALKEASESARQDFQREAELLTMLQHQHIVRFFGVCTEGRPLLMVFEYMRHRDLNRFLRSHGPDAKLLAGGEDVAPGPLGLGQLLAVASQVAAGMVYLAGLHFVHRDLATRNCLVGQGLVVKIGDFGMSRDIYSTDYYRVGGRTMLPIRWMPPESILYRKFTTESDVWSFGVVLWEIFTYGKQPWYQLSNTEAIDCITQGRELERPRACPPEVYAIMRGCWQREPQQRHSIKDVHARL

[2] = Pharmacokinetic assay in rats, oral; type: in vivo; settings: rat, male SD rats, 5 mg/kg single intragastric administration, plasma
Protocol: Male SD rats were available from Beijing Vital River Laboratory Animal Technology Co., Ltd. The rats were allocated with three rats per group, and orally administered the suspension of a sample to be tested (5 mg/kg, the suspension is a mixed solution of 10% EtOH, 40% PEG 400 and 50% H2O) by single intragastric administration, respectively. Before the experiment, the animals were fasted overnight, and the fasting time was from 10 hrs before administration to 4 hrs after administration. After administration, a blood sample was taken at 0.25 hr, 0.5 hr, 1 hr, 2 hrs, 4 hrs, 6 hrs, 8 hrs and 24 hrs, respectively. After the animals were narcotized with isoflurane using an anaesthesia machine for small animals, 0.3 mL of whole blood was taken from fundus venous plexus, and placed in a heparin anticoagulant tube. At 4° C., the sample was centrifuged at 4000 rpm for 5 min, and plasma was transferred to a centrifuge tube and preserved at −80° C. until the analysis was started. The sample in plasma was extracted by the protein precipitation method, and the extracted liquid was analyzed by LC/MS/MS.

TrkA^WT kinase, sequence (P04629 33-796): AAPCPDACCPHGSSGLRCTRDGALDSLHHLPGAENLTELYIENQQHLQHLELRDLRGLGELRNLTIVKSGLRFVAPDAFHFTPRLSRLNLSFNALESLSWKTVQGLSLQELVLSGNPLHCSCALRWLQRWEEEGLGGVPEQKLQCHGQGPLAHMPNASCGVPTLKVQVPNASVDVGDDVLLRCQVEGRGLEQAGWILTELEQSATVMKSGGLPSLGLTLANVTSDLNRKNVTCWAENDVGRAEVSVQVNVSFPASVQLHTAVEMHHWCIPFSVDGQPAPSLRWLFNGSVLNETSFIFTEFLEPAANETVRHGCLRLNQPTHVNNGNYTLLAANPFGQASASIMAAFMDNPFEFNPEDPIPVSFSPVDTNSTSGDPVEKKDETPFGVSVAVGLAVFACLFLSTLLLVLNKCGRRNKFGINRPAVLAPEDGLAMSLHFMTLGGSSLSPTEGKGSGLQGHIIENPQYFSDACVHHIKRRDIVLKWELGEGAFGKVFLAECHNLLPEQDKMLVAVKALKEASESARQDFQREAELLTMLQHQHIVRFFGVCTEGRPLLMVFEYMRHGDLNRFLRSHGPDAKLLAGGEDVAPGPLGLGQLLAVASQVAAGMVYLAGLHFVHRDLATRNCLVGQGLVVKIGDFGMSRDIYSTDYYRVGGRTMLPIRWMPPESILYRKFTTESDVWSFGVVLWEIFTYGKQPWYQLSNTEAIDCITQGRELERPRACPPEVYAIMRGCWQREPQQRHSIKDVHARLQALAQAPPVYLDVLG

**Q.** Which IC50 (TrkA^WT kinase) does the source give for `C[C@H]1CNC(=O)c2c(N)nn3ccc(nc23)N2C[C@@H](F)C[C@@H]2c2cc(F)cnc2O1` [Example 15, (1^3E,1^4E,2^2R,2^4S,5S)-1^2-amino-2^4,3^5-difluoro-5-methyl-4-oxa-7-aza-1(5,3)-pyrazolo[1,5-a] pyrimidine--3(3,2)-pyridine-2(1,2)-pyrrolidylcyclooctanephane-8-one] here?
**A.** 0.45 ± 0.18 nM

**Q.** What about the IC50 [1] of the same compound?
**A.** 0.53 ± 0.08 nM

**Q.** What about the AUC(0-inf) [2] of the same compound?
**A.** 494 ng·h/mL

**Q.** What about the Cmax [2] of the same compound?
**A.** 285 ng/mL

**Q.** And the Tmax [2]?
**A.** 0.58 h

**Q.** And the half-life [2]?
**A.** 1.53 h
